The conditions of series [1]: pretargeting, 24 h interval; Zeglis 2013; cited from earlier work.
Series [2] relates to subcutaneous SW1222 xenografts. Put plainly: Pretargeted PET imaging, control experiments. The class given is in vivo, athymic nude mice. Here is the method: Due to its pharmacokinetic profile, ^64Cu-Tz-SarAr was selected for in vivo pretargeting experiments. To this end, athymic nude mice bearing A33 antigen-expressing SW1222 human colorectal carcinoma tumors were first injected with huA33-TCO (100 μg). After a 24 h interval during which huA33-TCO accumulated at the tumor and cleared from the blood, the mice were injected with ^64Cu-Tz-SarAr (400-450 μCi). The specific activity of the radiotracer was adjusted using cold ^natCu-Tz-SarAr such that the molar ratio of Tz-SarAr:huA33-TCO≈1:1. […] At 1 h post-injection, the activity concentration in the tumor (5.63±0.67% ID/g) was the highest of all tissues surveyed, while the blood (4.2±0.8% ID/g) and kidneys (3.1±0.3% ID/g) were the healthy organs with the highest background activity concentrations. […]
All pretargeted PET imaging experiments were performed on an Inveon PET/CT scanner (Siemens Healthcare Global). […] Static scans were recorded at various time points after injection with a minimum of 30 million coincident events (10-30 min total scan time). […] Activity concentrations (percentage of dose per gram of tissue [% ID/g]) and maximum intensity projections were determined by conversion of the counting rates from the reconstructed images. All of the resulting PET images were analyzed using ASIPro VM™ software. […]

The text below walks through data of patent US11135320B2, “Radioligands for pretargeted pet imaging and methods of their therapeutic use” (priority 2015, dated 2021).

For the molecule `O=C([O-])CN1CCN(CC(=O)[O-])CC(Cc2ccc(NC(=O)CCCC(=O)NCc3ccc(-c4nncnn4)cc3)cc2)N(CC(=O)[O-])CC1.[64Cu+2]` (stereo not shown) [^64Cu-Tz-NOTA], in series [1], the Adrenals absorbed dose is 0.0251 rad/mCi, the “Bladder Wall absorbed dose” value is on record as 0.0262 rad/mCi, the Brain absorbed dose is 0.0236 rad/mCi and the Breasts absorbed dose is 0.0209 rad/mCi. In addition, in series [1], the “Effective Dose” value is 0.046 rem/mCi, the “Gallbladder Wall absorbed dose” value is on record as 0.0272 rad/mCi, the “Heart Wall absorbed dose” value is 0.0294 rad/mCi and the Kidneys absorbed dose is reported as 0.0315 rad/mCi. Further, in series [1], the Liver absorbed dose was 0.0311 rad/mCi, the “Lower Lg. Int. Wall absorbed dose” value is on record as 0.166 rad/mCi, the Lungs absorbed dose was 0.0289 rad/mCi and the Muscle absorbed dose is 0.0138 rad/mCi. Besides, in series [1], the “Osteogenic Cells absorbed dose” value is 0.0852 rad/mCi, the Ovaries absorbed dose was 0.0299 rad/mCi, the Pancreas absorbed dose is on record as 0.0258 rad/mCi and the “Red Marrow absorbed dose” value was 0.0530 rad/mCi. For the same molecule, in series [1], the Skin absorbed dose was 0.0194 rad/mCi, the “Small Intestine absorbed dose” value was 0.033 rad/mCi, the Spleen absorbed dose is listed as 0.0180 rad/mCi and the “Stomach Wall absorbed dose” value was 0.0267 rad/mCi. In series [1], the Testes absorbed dose is on record as 0.0225 rad/mCi, the Thymus absorbed dose was 0.0227 rad/mCi, the Thyroid absorbed dose was 0.0228 rad/mCi and the “Total Body absorbed dose” value is 0.0272 rad/mCi. Also, in series [1], the “Upper Lg. Int. Wall absorbed dose” value is recorded as 0.114 rad/mCi and the Uterus absorbed dose is 0.0277 rad/mCi.

Consider `NC12CNCCNCC(NCc3ccc(CNC(=O)CCCC(=O)NCc4ccc(-c5nncnn5)cc4)cc3)(CNCCNC1)CNCCNC2.[64Cu+2]` [^64Cu-Tz-SarAr], for which the “uptake by the tumor (control PET imaging)” value was “less than 0.5 % ID/g” in series [2] (^64Cu-Tz-SarAr alone, no antibody) and “less than 0.5 % ID/g” in series [2] (^64Cu-Tz-SarAr with unmodified huA33).
